Results reported in US9487561B2, “Biologically active complex and its preparation” (HAMLET PHARMA AB, priority 2010, dated 2016).
“Also recorded” adds a separate entry of the source.

Legend:
[1] = tested on: kidney carcinoma (A498) cells; experiment: cell death assay with p38 inhibitors; format: cell-based, human; details: SB202190 20 μM or BIRB796 10 μM; HAMLET 3 h
Description: FIG. 4. p38 inhibition rescues carcinoma and lymphoma cells from death and morphological change in response to HAMLET. (A, B) p38 inhibition (SB202190, 20 μM) rescued carcinoma (A549 and A498) and T-cell lymphoma (Jurkat) cells from death in response to HAMLET (7-49 μM, 3 h). Viability was quantified by Trypan blue exclusion (A) or as ATP levels (B). Data are means+SEMs for 3 independent experiments. (C) Real-time images of cell morphology after HAMLET exposure, showing that p38 inhibition prevents morphological changes in carcinoma cells (nuclear condensation, rounding up and blebbing). (D-E) A549 lung carcinoma cells were transfected using siRNA against p38α/MAPK14 and/or p38β/MAPK11 or non-targeting siRNA. Relative MAPK11 and MAPK14 mRNA levels are shown (MAPK/GAPDH, in % of non-transfected cells) as means+SEMs for 4 independent experiments. […] (F) The cytotoxic effect of HAMLET was quantified 48 hours after transfection as reduction in ATP levels. […]
FIG. 12. […] Viability was quantified by ATP levels.
Cells were detached from cell culture flasks with versen (0.2 g EDTA in 200 ml H2O and 800 ml PBS), washed with PBS and resuspended in serum-free RPMI-1640. […] Cell death was quantified by trypan blue exclusion (Chroma Gesellschaft Schmid & Co) or by measuring ATP levels (ATPlite Kit, PerkinElmer, Infinite 200, Tecan). […]

[2] = tested on: lung carcinoma, kidney carcinoma and lymphoma cells; experiment: HAMLET-induced change in cell morphology (light microscopy, real-time imaging); format: cell-based
Description: (§1) Cells were detached from cell culture flasks with versen (0.2 g EDTA in 200 ml H2O and 800 ml PBS), washed with PBS and resuspended in serum-free RPMI-1640. HAMLET dissolved in PBS was incubated with cells (0.5×10^6/ml for A549, A498 and HeLa cells; 1×10^6/ml for Jurkat) at 37° C. FCS was added after 1 hour. Cell death was quantified by trypan blue exclusion (Chroma Gesellschaft Schmid & Co) or by measuring ATP levels (ATPlite Kit, PerkinElmer, Infinite 200, Tecan). Light images were captured using the HOLOMONITOR™ M2 digital holographic microscope (Phase Holographic Imaging AB, Lund, Sweden).
For live cell imaging, cells were pre-treated with SB202190 for 30 minutes, nuclei were stained with Hoechst 33342 (Invitrogen) and Alexa-Fluor 568-labeled HAMLET (10% labeled HAMLET, Molecular Probes) was added in serum-free medium. FCS was added after 1 hour. Fluorescence was detected with pinhole settings corresponding to 1 airy unit. The cells were kept at 37° C., 5% CO2 and examined unfixed by LSM510 DUO confocal microscopy (Carl Zeiss).
To examine if the HAMLET-induced change in carcinoma cell morphology was modified by the channel inhibitors, lung carcinoma, kidney carcinoma and lymphoma cells were exposed to HAMLET in the presence or absence of ion channel inhibitors and examined by light microscopy (FIG. 2C).
To determine if p38 signaling was involved in cell death, we inhibited p38α and p38β in lung and kidney carcinoma and Jurkat lymphoma cells with two small-molecule p38 inhibitors: SB202190, a highly specific pyridinyl-imidazole inhibitor; and BIRB796, a diaryl urea compound, which bears little structural similarity to SB202190 (Fabian et al., 2005, Nature Biotechnology 23: 329-336), ([…] and FIG. 12B). […] The effect of p38 inhibition on cell death was also observed by real-time confocal imaging of lung carcinoma cells exposed to fluorescently labeled HAMLET.

[3] = tested on: A549 lung carcinoma cells; experiment: cell death assay (trypan blue exclusion, ATP levels); format: cell-based, human; details: for effect of p38 inhibitor on death in response to HAMLET: SB202190 20 μM or BIRB796 10 μM, HAMLET 3 h
Description: as §1
(§2) For studies with inhibitors, cells were pretreated for 30 minutes. Inhibitors used were Gadolinium chloride (GdCl3, 100 μM), Barium chloride (BaCl2, 1 mM), Ruthenium red (30 μM), tetrandrine (10 μM) and amiloride (1 mM), all from Sigma Aldrich. For p38 inhibition, SB202190 (20 μM, Sigma Aldrich) or BIRB796 (10 μM, Axon Medchem) dissolved in DMSO was used. The wells were washed twice with PBS and new medium with inhibitor was added. For RNA interference, FlexiTube siRNA Premixes against MAPK11 (SI00606053), MAPK14 (SI00300769) and All Star Negative Control siRNA (SI03650318) from Qiagen was used. A549 forward was transfected using 25 nM final siRNA concentration in 24-well plate. After 48 hours, knockdown was examined by Western blot (anti-p38, 1:1000, Cell Signaling) and RT-PCR (MAPK14, QT00079345, QIAGEN).
(§3) To examine if functional ion channels are important for the tumoricidal activity of HAMLET, A549 lung carcinoma cells in suspension were pretreated with the channel inhibitors for 30 minutes and exposed to increasing concentrations of HAMLET for three hours.
A549 cells were seeded to a density of 0.8-1.0×10^6 cells/well in RPMI without FCS. Different volumes of HAMLET/oleate and oleic acid solutions were added. The cells were incubated for 1 hour at 37° C. 5% CO2 for 1 hour before 50 μl of FCS (5% final concentration) were added to the wells. The cells were then further incubated for additional 2 hours before the viability were determined by trypan blue exclusion and ATP measurements.

[4] = tested on: potassium channels in A549, lung carcinoma cell lines; experiment: FLUXOR potassium (K^+) channel assay, Thallium (Tl^+) indicator; format: cell-based, human; details: carcinoma cells, 30 minutes pretreatment, HAMLET 35 μM
Description: The FLUXOR™ potassium (K^+) channel assay was performed on the TECAN infinite F200 (Tecan Group, Switzerland), according to the manufacturer's instructions (Invitrogen). Briefly, this involved FLUXOR™ loading buffer (Hank's Balanced Saline Solution, (HBSS) buffered with 20 mM HEPES and pH adjusted to 7.4 with NaOH. POWERLOAD™ concentrate and water-soluble Probenecid were used respectively to enhance the dye solubility and retention, respectively. Media were removed from the cell plates manually, and 80 μL of loading buffer containing the FLUXOR™ dye mix was applied to each well. Once inside the cell, the nonfluorescent AM ester form of the FLUXOR™ dye is cleaved by endogenous esterases into a thallium-sensitive indicator. The dye was loaded for 60 minutes at room temperature and then removed with the supernatant. After washing with dye-free PBS buffer, a final volume of 80 μL assay buffer containing water-soluble probenecid was added. Cells received one of the following channel inhibitors: 3.3 μL per well of 30 mM amiloride, 3.0 μL of 32 mM BaCl2, 1.8 μL of 5.4 mM gadolinium, 3 μL 3.2 mM tetrandrine and 2.3 μL of 2.6 mM ruthenium red, and were then incubated at room temperature (23-25° C.) for 30 minutes to allow equilibration of the test compounds. Prior to injection, stimulation buffer was prepared from the chloride-free buffer and thallium reagents provided in the kit as well as HAMLET, to achieve a final added concentrations of 2 mM free Tl+ and 35 μM HAMLET after 1:5 dilution upon injection of the stimulus buffer onto cells that had been loaded with FLUXOR™ dye.
(§4) To distinguish Ca^2+ mobilization from intracellular stores from the influx of extracellular Ca^2+, EGTA was then added to the cell medium. […] K^+ fluxes across tumor cell membranes were subsequently quantified under the same experimental conditions, using the fluorophore FLUXOR™, which fluoresces after thallium has entered cells through K^+ channels.
Potassium channel activity was therefore measured in A549, lung carcinoma cell lines using an indicator, which emits fluorescence signal upon entering the cells via opened potassium channels, Thallium (Tl^+) indicator (FIG. 18).

[5] = tested on: Human renal tubular epithelial cells (HRTEC); experiment: Ca^2+ and K^+ levels in healthy, differentiated cells in primary culture; format: cell-based
Description: Human renal tubular epithelial cells (HRTEC) were preincubated with Fluo-4 as described, exposed to HAMLET (35 μM) and examined by real time confocal microscopy.
(§5) To further characterize ion channel activation by HAMLET, carcinoma cells were pretreated with defined channel blockers. Amiloride is a sodium channel inhibitor with effects on mechanosensitive channels, barium chloride (BaCl2) is a general K^+ channel inhibitor, gadolinium chloride (GdCl3) inhibits mechanosensitive channels, Ruthenium red is a general Ca^2+ inhibitor and tetrandrine inhibits large conductance, Ca^2+ activated K^+ channels. The carcinoma cells were preincubated with Fluo-4 as described above, pretreated with each of the channel inhibitors for 30 minutes, exposed to HAMLET (35 μM) and examined by real time confocal imaging. Furthermore, cells treated with EGTA were compared to cells with intact extracellular Ca^2+ levels, to distinguish the early peak from the subsequent influx of Ca^2+ (FIG. 1B, Table in FIG. 8).

[6] = tested on: lung carcinoma cells (A549); experiment: intracellular Ca^2+, Fluo-4, real time confocal microscopy; format: cell-based, human
Description: To examine if HAMLET modulates ion channel activity in tumor cells, we first quantified changes in intracellular Ca^2+ and K^+. Lung carcinoma cells were first preloaded with the Fluo-4 Ca^2+ fluorophore Fluo-, exposed to HAMLET (35 μM) and examined by real time confocal microscopy for changes in fluorescence intensity (FIG. 1A). The Ca^2+ ionophore A23187, which acts as a Ca^2+ shuttle across cell membranes, was used as a positive control (Abbott et al., 1979, Antimicrobial Agents and Chemotherapy 16, 808-812).
as §4, §5

[7] = tested on: p38, HSP27, ERK1/2 in kidney and lung carcinoma cells; experiment: MAPK phosphorylation (phospho-MAPK antibody arrays, Western blot); format: cell-based, human
Text: Equal volumes of lysates were separated by SDS-PAGE on 4-12% Bis-Tris gels (Invitrogen) and blotted onto PVDF membranes. For other Western blots, 200,000 cells were allowed to adhere overnight in a 6-well plate. After HAMLET treatment the cells were washed with PBS and lysed in M-PER lysis buffer (Pierce) containing Complete protease inhibitor cocktail and PhosSTOP phosphatase inhibitor cocktail (both from Roche). The detached cells were collected by centrifugation. The lysates were cleared by centrifugation and protein concentrations were measured using the DC Protein Assay (Bio-Rad Laboratories, Hercules, Calif.). Equal amounts of protein were separated by SDS-PAGE on 4-12% Bis-Tris gels (Invitrogen) and blotted onto PVDF membranes (GE Healthcare). Membranes were saturated with BSA (GAPDH) or nonfat dry milk (phospho-p38, p38, phospho-ERK1/2, ERK1/2) and incubated with anti-p38, anti-phospho-p38, anti-ERK1/2, anti-phospho-(Thr202/Tyr204)-p44/42 (all 1:500-1000, Cell Signaling Technology), anti-ATF6 (1:1000, IMG-273, Imgenex), anti-phospho-eIF2α (Ser51), (1:500, Cell Signaling Technology) or anti-GAPDH (1:3000-5000, Novus Biologicals) antibodies followed by horseradish peroxidase-conjugated anti-rabbit (1:1000, DakoCytomation, Glostrup, Denmark) or anti-mouse (1:40000-50000, Novus Biologicals) antibodies for staining. Bound antibodies were detected with ECL Plus Western Blotting Reagent (GE Healthcare, Little Chalfont, UK) and GelDoc equipment (Bio-Rad Laboratories, Hercules, Calif.). If required, membranes were stripped with Restore Western Blot Stripping Buffer (Pierce, Rockford, Ill.), blocked and reprobed with new antibodies. MAP kinase phosphorylation was analyzed on a Human Phospho-MAPK array (Proteome Profiler Array, R&D Systems) as per the manufacturer's instruction. Band and spot intensities were quantified using ImageJ (Abramoff et al., July 2004, Biophotonics International). Cytokine quantification (IL6, IL8, TNFα) was performed on an […] 1000 immunoassay system (Siemens Diagnostics).
P38 MAPKs are activated by dual phosphorylation on conserved threonine and tyrosine residues by MKK3/6 and when phosphorylated, a wide variety of effector proteins, including MAPKAPK2 kinases, HSP27 chaperones and ATF2 and CHOP transcription factors become active (Cuenda et al., 2007, Biochimica et Biophysica Acta 1773: 1358-1375).

[8] = tested on: lymphoma cells (Jurkat cells); experiment: cell death assay with inhibitors; format: cell-based; details: SB202190 20 μM; HAMLET 7-49 μM, 3 h
Description: GAPDH was used as a loading control.
as §1, §2, §3

Cc1ccc(-n2nc(C(C)(C)C)cc2NC(=O)Nc2ccc(OCCN3CCOCC3)c3ccccc23)cc1 [BIRB796]
effect of p38 inhibitor on death in response to HAMLET [1]: rescued
effect of p38 inhibitor on morphological changes associated with HAMLET induced cell death ([2]; BIRB796 10 μM, HAMLET 35 μM, 3 h): diminishes the morphological changes
effect of p38 inhibitor on death in response to HAMLET [3]: rescued

[Cl][Gd]([Cl])[Cl] [GdCl3, Gadolinium chloride, reference compound]
effect of ion channel inhibitor on HAMLET-induced change in cell morphology ([2]; light microscopy): did not prevent the morphological changes
effect of channel blocker on K^+ flux in response to HAMLET [4]: strongly inhibited
effect of channel inhibitor on HAMLET-induced cell death ([3]; 30 minutes pretreatment, HAMLET three hours): no effect on viability
effect of channel blocker on response to HAMLET in healthy cells [5]: no effect
effect of channel blocker on first, EGTA insensitive Ca^2+ peak in response to HAMLET ([6]; 30 minutes pretreatment, HAMLET 35 μM): inhibited

Oc1ccc(-c2nc(-c3ccncc3)c(-c3ccc(F)cc3)[nH]2)cc1 [SB202190]
effect of p38 inhibitor on p38 and HSP27 phosphorylation upon HAMLET treatment [7]: marked decrease in p38 and HSP27 phosphorylation
effect of p38 inhibitor on death in response to HAMLET [1]: rescued
effect of p38 inhibitor on death in response to HAMLET [3]: rescued; also recorded: clearly attenuated
effect of p38 inhibitor on death in response to HAMLET [8]: rescued

CNc1ccc2oc(C[C@H]3O[C@@]4(CC[C@H]3C)O[C@H]([C@H](C)C(=O)c3ccc[nH]3)[C@H](C)C[C@H]4C)nc2c1C(=O)O [ionophore, reference compound]
Ca^2+ response in HRTECs ([5]; HAMLET 35 μM): rapid and sustained increase in Ca^2+
cells involved in Ca^2+ response [6]: all cells
intracellular Ca^2+ response ([6]; HAMLET 35 μM): more drastic and sustained increase in intracellular Ca^2+ levels than HAMLET
